In article PMC9822021, “Biological Activity of Amidino-Substituted Imidazo [4,5-b]pyridines” (Molecules, 2022):
Converted amounts (≈) assume the structure as drawn.

How the values were obtained:
S. Pneumoniae ATCC 49619 = experiment: Antibacterial activity in vitro, broth microdilution; assay type: cell-based; settings: Streptococcus pneumoniae, ATCC49619; broth microdilution (CLSI), 16–24 h at 37 °C
Description: (§1) Synthesized compounds were prepared as 10 mM DMSO solutions and tested in a final concentration range of 100–0.2 µM [34].
(§2) Broth microdilution testing was performed according to CLSI (Clinical Laboratory Standards Institute) guidelines. MIC (minimal inhibitory concentration) values were defined as the last tested concentration of the compound at which there was no visible growth of bacteria. Inoculums for each microorganism were prepared using the direct colony suspension method, where broth solutions that achieved turbidity equivalent to 0.5 McFarland standard were additionally diluted 100× with Ca-adjusted MH media (Becton Dickinson).

S. aureus ATCC 29213 = experiment: as above; assay type: cell-based; settings: Staphylococcus aureus, ATCC29213; broth microdilution (CLSI), 16–24 h at 37 °C
Description: as §1, §2

E. coli ATCC 25922 = experiment: as above; assay type: cell-based; settings: Escherichia coli, ATCC25922; broth microdilution (CLSI), 16–24 h at 37 °C
Description: as §1, §2

E. coli Efflux Del = experiment: microbe, parasite or virus in culture; assay type: cell-based; settings: Escherichia coli, read-out: MIC E. coli Efflux Del
Description: as §1, §2

in vitro [1] = settings: dog
[2] = system: HeLa cervical carcinoma cells; experiment: In vitro antiproliferative activity, MTT assay; assay type: cell-based; settings: Homo sapiens, 72 h
From the text: (§3) Human cancer cell lines used in this manuscript, namely Capan-1, HCT-116, NCI-H460, LN-229, HL-60, K-562, Z-138, SW620, PC3 and HeLa, were acquired from the American Type Culture Collection (ATCC, Manassas, VA, USA), while the DND-41 cell line was purchased from the Deutsche Sammlung von Mikroorganismen und Zellkulturen (DSMZ Leibniz-Institut, Germany). Culture media were purchased from Gibco Life Technologies, USA, and supplemented with 10% fetal bovine serum (HyClone, GE Healthcare Life Sciences, Chicago, IL, USA), except for the media for SW620, PC3 and HeLa cells, which were purchased from Sigma.
(§4) Adherent cell lines LN-229, HCT-116, NCI-H460 and Capan-1 cells were seeded at a density between 500 and 1500 cells per well in 384-well tissue culture plates (Greiner). […]. Cells were incubated for 72 h with compounds and were then analyzed using the CellTiter 96® AQueous One Solution Cell Proliferation Assay (MTS) reagent (Promega) according to the manufacturer’s instructions. Absorbance of the samples was measured at 490 nm using a SpectraMax Plus 384 (Molecular Devices), and OD values were used to calculate the 50% inhibitory concentration (IC50). Compounds were tested in two independent experiments. SW620, PC3 and HeLa cells were seeded in 96-well microtiter plates at 1 × 10^4 to 3 × 10^4 cells/mL, depending on the doubling times of the specific cell line. Test agents were then added in five 10-fold dilutions (10^−8 to 10^−4 M). Working dilutions were freshly prepared on the day of testing. After 72 h of incubation, the cell growth rate was evaluated using the MTT assay as described previously. Absorbance of the samples was measured at 570 nm, and OD values were used to calculate the 50% inhibitory concentration (IC50). Each test was performed in quadruplicate in at least two individual experiments.

[3] = system: PC3 prostate carcinoma cells; experiment: In vitro antiproliferative activity, MTT assay; assay type: cell-based; settings: Homo sapiens, 72 h
From the text: as §3, §4

[4] = system: SW620 colon carcinoma cells; experiment: In vitro antiproliferative activity, MTT assay; assay type: cell-based; settings: Homo sapiens, SW-620, 72 h
From the text: as §3, §4

[5] = system: Capan-1 pancreatic adenocarcinoma cells; experiment: In vitro antiproliferative activity, MTS proliferation assay; assay type: cell-based; settings: Homo sapiens, 72 h
Description: (§5) Culture media were purchased from Gibco Life Technologies, USA, and supplemented with 10% fetal bovine serum (HyClone, GE Healthcare Life Sciences, Chicago, IL, USA), except for the media for SW620, PC3 and HeLa cells, which were purchased from Sigma.
(§6) Cells were incubated for 72 h with compounds and were then analyzed using the CellTiter 96® AQueous One Solution Cell Proliferation Assay (MTS) reagent (Promega) according to the manufacturer’s instructions. […] Compounds were tested in two independent experiments. SW620, PC3 and HeLa cells were seeded in 96-well microtiter plates at 1 × 10^4 to 3 × 10^4 cells/mL, depending on the doubling times of the specific cell line. Test agents were then added in five 10-fold dilutions (10^−8 to 10^−4 M). Working dilutions were freshly prepared on the day of testing. After 72 h of incubation, the cell growth rate was evaluated using the MTT assay as described previously. […] Each test was performed in quadruplicate in at least two individual experiments.

[6] = system: DND-41 acute lymphoblastic leukemia cells; experiment: as above; assay type: cell-based; settings: Homo sapiens, DND41, 72 h
Description: as §5, §6

[7] = system: HL-60 acute myeloid leukemia cells; experiment: as above; assay type: cell-based; settings: Homo sapiens, 72 h
Description: as §5, §6

in vitro [8] = settings: human
[9] = system: Z-138 non-Hodgkin lymphoma cells; experiment: In vitro antiproliferative activity, MTS proliferation assay; assay type: cell-based, human; settings: Homo sapiens, Z-138, 72 h
From the text: as §3, §4

in vitro [10] = settings: human; remark: listed apart in the source
[11] = system: K-562 chronic myeloid leukemia cells; experiment: In vitro antiproliferative activity, MTS proliferation assay; assay type: cell-based; settings: Homo sapiens, K562, 72 h
From the text: as §3, §4

[12] = system: HCT-116 colorectal carcinoma cells; experiment: as above; assay type: cell-based; settings: Homo sapiens, 72 h
From the text: as §3, §4

[13] = system: LN-229 glioblastoma cells; experiment: as above; assay type: cell-based; settings: Homo sapiens, 72 h
From the text: as §3, §4

[14] = system: NCI-H460 lung carcinoma cells; experiment: as above; assay type: cell-based; settings: Homo sapiens, 72 h
From the text: as §3, §4

| SMILES | MIC (S. Pneumoniae ATCC 49619) [µM] | MIC (S. aureus ATCC 29213) [µM] | MIC (E. coli ATCC 25922) [µM] | MIC (E. coli Efflux Del) [µM] | CC50 (in vitro [1]) [µM] | IC50 [2] [µM] | IC50 [3] [µM] | IC50 [4] [µM] | IC50 [5] [µM] | IC50 [6] [µM] | IC50 [7] [µM] | CC50 (in vitro [8]) [µM] | IC50 [9] [µM] | CC50 (in vitro [10]) [µM] | IC50 [11] [µM] | IC50 [12] [µM] | IC50 [13] [µM] | IC50 [14] [µM] | melting point [°C] |
| --- | --- | --- | --- | --- | --- | --- | --- | --- | --- | --- | --- | --- | --- | --- | --- | --- | --- | --- | --- |
| CC1(C)S[C@@H]2[C@H](NC(=O)[C@H](N)c3ccccc3)C(=O)N2[C@H]1C(=O)O [Ampicillin, ampicillin, reference compound] | < 0.125 | 1 (≈ 0.349 µg/mL) | 1 (≈ 0.349 µg/mL) | – | – | – | – | – | – | – | – | – | – | – | – | – | – | – | – |
| CC(C)(O/N=C(\C(=O)N[C@@H]1C(=O)N2C(C(=O)[O-])=C(C[n+]3ccccc3)CS[C@H]12)c1csc(N)n1)C(=O)O [Ceftazidime, ceftazidime, reference compound] | 0.25 (≈ 0.137 µg/mL) | 16 (≈ 8.75 µg/mL) | 0.25 (≈ 0.137 µg/mL) | 0.25 (≈ 0.137 µg/mL) | – | – | – | – | – | – | – | – | – | – | – | – | – | – | – |
| N#Cc1ccc(-c2nc3ncccc3[nH]2)cc1 [Compound 6, 4-(1H-Imidazo[4,5-b]pyridin-2-yl)benzonitrile] | > 64 | > 64 | > 64 | > 64 | > 100 | 28.9 ± 7.2 | > 100 | > 100 | > 100 | > 100 | > 100 | > 100 | > 100 | > 100 | > 100 | > 100 | > 100 | > 100 | – |
| Cl.N=C(N)c1ccc(-c2nc3ncccc3[nH]2)cc1 [Compound 9, 4-(1H-Imidazo[4,5-b]pyridin-2-yl)benzimidamide Hydrochloride] | > 64 | > 64 | > 64 | > 64 | > 100 | > 100 | > 100 | > 100 | > 100 | > 100 | > 100 | > 100 | > 100 | > 100 | > 100 | > 100 | > 100 | > 100 | > 300 |
| Cl.c1cnc2nc(-c3ccc(C4=NCCCN4)cc3)[nH]c2c1 [Compound 12, 2-(4-(1H-Imidazo[4,5-b]pyridin-2-yl)phenyl)-3,4,5,6-tetrahydropyrimidin-1-ium Chloride] | > 64 | > 64 | > 64 | > 64 | > 100 | > 100 | > 100 | > 100 | > 100 | > 100 | > 100 | > 100 | > 100 | > 100 | > 100 | > 100 | > 100 | > 100 | > 300 |
| CC(C)NC(=N)c1ccc(-c2nc3ncc(Br)cc3[nH]2)cc1.Cl [Compound 16, 4-(6-Bromo-1H-imidazo[4,5-b]pyridin-2-yl)-N-isopropylbenzimidamide Hydrochloride] | > 64 | > 64 | > 64 | > 64 | 71.2 ± 40.8 | 13.3 ± 4.3 | 13.3 ± 2.6 | 7.4 ± 1.1 | 52.7 ± 2.9 | 11.9 ± 0.1 | 91.4 ± 5.1 | – | 12.1 ± 0.8 | – | 53.6 ± 2.8 | 77.2 ± 19.1 | 52.4 ± 8.1 | > 100 | > 300 |
| CC(=O)O[C@@]12CO[C@@H]1C[C@H](O)[C@@]1(C)C(=O)[C@H](O)C3=C(C)[C@@H](OC(=O)[C@H](O)[C@@H](NC(=O)OC(C)(C)C)c4ccccc4)C[C@@](O)([C@@H](OC(=O)c4ccccc4)[C@H]21)C3(C)C [DTX, docetaxel, reference compound] | – | – | – | – | – | – | – | – | 0.0038 ± 0.003 | 0.0025 | 0.0022 | – | 0.0023 | – | 0.0085 ± 0.001 | 0.0025 | 0.0041 ± 0.003 | 0.0034 | – |
| C[C@@H](O)[C@H]1C(=O)N2C(C(=O)O)=C(S[C@@H]3CN[C@H](C(=O)N(C)C)C3)[C@H](C)[C@H]12 [Meropenem, meropenem, reference compound] | < 0.125 | < 0.125 | < 0.125 | < 0.125 | – | – | – | – | – | – | – | – | – | – | – | – | – | – | – |
| CN[C@@H]1C[C@H]2O[C@@](C)([C@@H]1OC)n1c3ccccc3c3c4c(c5c6ccccc6n2c5c31)C(=O)NC4 [STS, staurosporine, reference compound] | – | – | – | – | – | – | – | – | – | – | – | – | 0.0484 ± 0.007 | – | 0.0374 ± 0.006 | 0.0701 ± 0.006 | 0.0668 ± 0.016 | 0.0448 ± 0.004 | – |
| COc1cccc2c1C(=O)c1c(O)c3c(c(O)c1C2=O)C[C@@](O)(C(=O)CO)C[C@@H]3O[C@H]1C[C@H](N)[C@H](O)[C@H](C)O1 [doxorubicine, reference compound] | – | – | – | – | – | 0.16 ± 0.05 | 0.13 ± 0.02 | 0.02 | – | – | – | – | – | – | – | – | – | – | – |
| COc1cc([C@@H]2c3cc4c(cc3[C@@H](O[C@@H]3O[C@@H]5CO[C@@H](C)O[C@H]5[C@H](O)[C@H]3O)[C@H]3COC(=O)[C@H]23)OCO4)cc(OC)c1O [etoposide, reference compound] | – | – | – | – | – | 0.004 ± 0.001 | 11.6 ± 1.9 | 0.63 ± 0.1 | – | – | – | – | – | – | – | – | – | – | – |
